How the values were obtained:
NCI/ADR-RES = assay: Growth inhibition of human NCI/ADR-RES cells assessed as cell growth at 0.1 uM incubated for 48 hrs by sulforhodamine B assay relative to control; assay type: functional; settings: read-out: Activity
SK-MEL-28 [1] = assay: Growth inhibition of human SK-MEL-28 cells assessed as cell growth at 0.1 uM incubated for 48 hrs by sulforhodamine B assay relative to control; assay type: functional; settings: SK-MEL-28, 48 h, read-out: Activity
KM12 = assay: Growth inhibition of human KM12 cells assessed as cell growth at 1 uM incubated for 48 hrs by sulforhodamine B assay relative to control; assay type: functional; settings: KM12, 48 h, read-out: Activity
UO-31 = assay: Growth inhibition of human UO31 cells assessed as cell growth at 1 uM incubated for 48 hrs by sulforhodamine B assay relative to control; assay type: functional; settings: UO-31, 48 h, read-out: Activity
MCF7 [2] = assay: Growth inhibition of human MCF7 cells incubated for 48 hrs by sulforhodamine B assay; assay type: functional, cell-based; settings: MCF7, 48 h
SF-539 = assay: Growth inhibition of human SF539 cells assessed as cell growth at 0.01 uM incubated for 48 hrs by sulforhodamine B assay relative to control; assay type: functional; settings: SF-539, 48 h, read-out: Activity
SF-295 = assay: Growth inhibition of human SF295 cells assessed as cell growth at 0.1 uM incubated for 48 hrs by sulforhodamine B assay relative to control; assay type: functional; settings: SF-295, 48 h, read-out: Activity
NCI-H460 = assay: Growth inhibition of human NCI-H460 cells assessed as cell growth at 0.1 uM incubated for 48 hrs by sulforhodamine B assay relative to control; assay type: functional; settings: NCI-H460, 48 h, read-out: Activity
MDA-MB-435 [3] = assay: Growth inhibition of human MDA-MB-435 cells assessed as cell growth at 0.1 uM incubated for 48 hrs by sulforhodamine B assay relative to control; assay type: functional; settings: MDA-MB-435, 48 h, read-out: Activity
MDA-MB-435 [4] = assay: Growth inhibition of human MDA-MB-435 cells assessed as cell growth at 1 uM incubated for 48 hrs by sulforhodamine B assay relative to control; assay type: functional; settings: MDA-MB-435, 48 h, read-out: Activity
NCI-H226 = assay: Growth inhibition of human NCI-H226 cells assessed as cell growth at 100 uM incubated for 48 hrs by sulforhodamine B assay relative to control; assay type: functional; settings: NCI-H226, 48 h, read-out: Activity
MCF7 [5] = assay: Growth inhibition of human MCF7 cells assessed as cell growth at 0.1 uM incubated for 48 hrs by sulforhodamine B assay relative to control; assay type: functional; settings: MCF7, 48 h, read-out: Activity
OVCAR-3 = assay: Growth inhibition of human OVCAR3 cells assessed as cell growth at 100 uM incubated for 48 hrs by sulforhodamine B assay relative to control; assay type: functional; settings: OVCAR-3, 48 h, read-out: Activity
IGROV-1 = assay: Growth inhibition of human IGROV1 cells assessed as cell growth at 100 uM incubated for 48 hrs by sulforhodamine B assay relative to control; assay type: functional; settings: IGROV-1, 48 h, read-out: Activity
OVCAR-4 [6] = assay: Growth inhibition of human OVCAR4 cells assessed as cell growth at 0.1 uM incubated for 48 hrs by sulforhodamine B assay relative to control; assay type: functional; settings: OVCAR-4, 48 h, read-out: Activity
CCRF-CEM [7] = assay: Growth inhibition of human CCRF-CEM cells assessed as cell growth at 0.01 uM incubated for 48 hrs by sulforhodamine B assay relative to control; assay type: functional; settings: read-out: Activity
NCI-H522 = assay: Growth inhibition of human NCI-H522 cells assessed as cell growth at 100 uM incubated for 48 hrs by sulforhodamine B assay relative to control; assay type: functional; settings: NCI-H522, 48 h, read-out: Activity
HL-60(TB) = assay: Growth inhibition of human HL-60(TB) cells incubated for 48 hrs by sulforhodamine B assay; assay type: functional, cell-based; settings: HL-60, 48 h
OVCAR-4 [8] = assay: Growth inhibition of human OVCAR4 cells assessed as cell growth at 100 uM incubated for 48 hrs by sulforhodamine B assay relative to control; assay type: functional; settings: OVCAR-4, 48 h, read-out: Activity
M14 = assay: Growth inhibition of human M14 cells assessed as cell growth at 1 uM incubated for 48 hrs by sulforhodamine B assay relative to control; assay type: functional; settings: M14, 48 h, read-out: Activity
A498 = assay: Growth inhibition of human A498 cells assessed as cell growth at 1 uM incubated for 48 hrs by sulforhodamine B assay relative to control; assay type: functional; settings: A498, 48 h, read-out: Activity
MDA-MB-231 = assay: Growth inhibition of human MDA-MB-231 cells assessed as cell growth at 1 uM incubated for 48 hrs by sulforhodamine B assay relative to control; assay type: functional; settings: MDA-MB-231, 48 h, read-out: Activity
CCRF-CEM [9] = assay: Growth inhibition of human CCRF-CEM cells assessed as cell growth at 1 uM incubated for 48 hrs by sulforhodamine B assay relative to control; assay type: functional; settings: read-out: Activity
RXF 393 = assay: Growth inhibition of human RXF393 cells incubated for 48 hrs by sulforhodamine B assay; assay type: functional, cell-based; settings: RXF 393, 48 h
SK-MEL-28 [10] = assay: Growth inhibition of human SK-MEL-28 cells assessed as cell growth at 1 uM incubated for 48 hrs by sulforhodamine B assay relative to control; assay type: functional; settings: SK-MEL-28, 48 h, read-out: Activity
SW-620 = assay: Growth inhibition of human SW620 cells assessed as cell growth at 0.1 uM incubated for 48 hrs by sulforhodamine B assay relative to control; assay type: functional; settings: SW-620, 48 h, read-out: Activity
SK-MEL-2 = assay: Growth inhibition of human SK-MEL-2 cells incubated for 48 hrs by sulforhodamine B assay; assay type: functional, cell-based; settings: SK-MEL-2, 48 h
SK-MEL-5 = assay: Growth inhibition of human SK-MEL-5 cells assessed as cell growth at 100 uM incubated for 48 hrs by sulforhodamine B assay relative to control; assay type: functional; settings: SK-MEL-5, 48 h, read-out: Activity
SK-OV-3 = assay: Growth inhibition of human SKOV3 cells assessed as cell growth at 0.01 uM incubated for 48 hrs by sulforhodamine B assay relative to control; assay type: functional; settings: SK-OV-3, 48 h, read-out: Activity
MOLT-4 = assay: Growth inhibition of human MOLT4 cells assessed as cell growth at 0.1 uM incubated for 48 hrs by sulforhodamine B assay relative to control; assay type: functional; settings: MOLT-4, 48 h, read-out: Activity
CAKI-1 = assay: Growth inhibition of human Caki1 cells assessed as cell growth at 100 uM incubated for 48 hrs by sulforhodamine B assay relative to control; assay type: functional; settings: CAKI-1, 48 h, read-out: Activity
[11] = read-out: pLC50 (the source's name) (converted)

O=C(Nc1cccc(-n2cc(-c3ccncc3)c(-c3cc(O)cc(Cl)c3)n2)c1)c1ccc(N2CCOCC2)c(C(F)(F)F)c1
growth at 0.1 µM (NCI/ADR-RES): 103% | growth at 0.1 µM (SK-MEL-28 [1]): 94% | growth at 1 µM (KM12): 54% | growth at 1 µM (UO-31): 57% | GI50 (MCF7 [2]; read-out: GI50): 4.18 µM | LC50 (MCF7 [2]; read-out: LC50): > 100 µM | TGI (MCF7 [2]; read-out: TGI): > 100 µM | GI50 (MCF7 [2]; read-out: pGI50 (converted)): 4.17 µM | LC50 (MCF7 [2]; read-out: pLC50 (converted)): > 100 µM | TGI (MCF7 [2]; read-out: pTGI (converted)): > 100 µM | growth at 0.01 µM (SF-539): 94% | growth at 0.1 µM (SF-295): 90% | growth at 0.1 µM (NCI-H460): 104% | growth at 0.1 µM (MDA-MB-435 [3]): 69% | growth at 1 µM (MDA-MB-435 [4]): 54% | growth at 100 µM (NCI-H226): 27% | growth at 0.1 µM (MCF7 [5]): 87% | growth at 100 µM (OVCAR-3): 30% | growth at 100 µM (IGROV-1): 25% | growth at 0.1 µM (OVCAR-4 [6]): 103% | growth at 0.01 µM (CCRF-CEM [7]): 98% | growth at 100 µM (NCI-H522): -20% | GI50 (HL-60(TB); read-out: GI50): 0.81 µM | LC50 (HL-60(TB); read-out: LC50): > 100 µM | TGI (HL-60(TB); read-out: TGI): 30.4 µM | GI50 (HL-60(TB); read-out: pGI50 (converted)): 0.813 µM | LC50 (HL-60(TB); read-out: pLC50 (converted)): > 100 µM | TGI (HL-60(TB); read-out: pTGI (converted)): 3.02 µM | growth at 100 µM (OVCAR-4 [8]): 57% | growth at 1 µM (M14): 45% | growth at 1 µM (A498): 98% | growth at 1 µM (MDA-MB-231): 11% | growth at 1 µM (CCRF-CEM [9]): 34% | LC50 (RXF 393): > 100 µM | GI50 (RXF 393; read-out: GI50): 0.303 µM | TGI (RXF 393; read-out: TGI): 19 µM | GI50 (RXF 393; read-out: pGI50 (converted)): 0.302 µM | TGI (RXF 393; read-out: pTGI (converted)): 1.91 µM | growth at 1 µM (SK-MEL-28 [10]): 44% | growth at 0.1 µM (SW-620): 105% | GI50 (SK-MEL-2; read-out: GI50): 2.34 µM | CC50 (SK-MEL-2; read-out: LC50 (the source's name)): > 100 µM | TGI (SK-MEL-2; read-out: TGI): 13.2 µM | GI50 (SK-MEL-2; read-out: pGI50 (converted)): 2.34 µM | CC50 (SK-MEL-2; [11]): > 100 µM | TGI (SK-MEL-2; read-out: pTGI (converted)): 13.2 µM | growth at 100 µM (SK-MEL-5): -72% | growth at 0.01 µM (SK-OV-3): 102% | growth at 0.1 µM (MOLT-4): 97% | growth at 100 µM (CAKI-1): -32%

COc1cc(Cl)cc(-c2nn(-c3cccc(NC(=O)Nc4cc(C(F)(F)F)cc(C(F)(F)F)c4)c3)cc2-c2ccncc2)c1
growth at 0.1 µM (NCI/ADR-RES): 95% | growth at 0.1 µM (SK-MEL-28 [1]): 102% | growth at 1 µM (KM12): 31% | growth at 1 µM (UO-31): 15% | IC50 (MCF7 [2]): 0.38 µM | GI50 (MCF7 [2]; read-out: GI50): 0.354 µM | LC50 (MCF7 [2]; read-out: LC50): > 100 µM | TGI (MCF7 [2]; read-out: TGI): 9.32 µM | GI50 (MCF7 [2]; read-out: pGI50 (converted)): 0.38 µM | LC50 (MCF7 [2]; read-out: pLC50 (converted)): > 100 µM | TGI (MCF7 [2]; read-out: pTGI (converted)): 9.33 µM | growth at 0.01 µM (SF-539): 100% | growth at 0.1 µM (SF-295): 91% | growth at 0.1 µM (NCI-H460): 101% | growth at 0.1 µM (MDA-MB-435 [3]): 98% | growth at 1 µM (MDA-MB-435 [4]): 22% | growth at 100 µM (NCI-H226): -47% | growth at 0.1 µM (MCF7 [5]): 91% | growth at 100 µM (OVCAR-3): -81% | growth at 100 µM (IGROV-1): -42% | growth at 0.1 µM (OVCAR-4 [6]): 97% | growth at 0.01 µM (CCRF-CEM [7]): 87% | growth at 100 µM (NCI-H522): -69% | IC50 (HL-60(TB)): 0.33 µM | GI50 (HL-60(TB); read-out: GI50): 0.37 µM | LC50 (HL-60(TB); read-out: LC50): > 100 µM | TGI (HL-60(TB); read-out: TGI): 3.24 µM | GI50 (HL-60(TB); read-out: pGI50 (converted)): 0.324 µM | LC50 (HL-60(TB); read-out: pLC50 (converted)): > 100 µM | TGI (HL-60(TB); read-out: pTGI (converted)): 3.24 µM | growth at 100 µM (OVCAR-4 [8]): -22% | growth at 1 µM (M14): 25% | growth at 1 µM (A498): 37% | growth at 1 µM (MDA-MB-231): 29% | growth at 1 µM (CCRF-CEM [9]): 5% | IC50 (RXF 393): 1.26 µM | LC50 (RXF 393): 14.8 µM | TGI (RXF 393; read-out: TGI): 3.92 µM | GI50 (RXF 393; read-out: pGI50 (converted)): 1.26 µM | TGI (RXF 393; read-out: pTGI (converted)): 3.89 µM | growth at 1 µM (SK-MEL-28 [10]): 46% | growth at 0.1 µM (SW-620): 94% | IC50 (SK-MEL-2): 0.66 µM | GI50 (SK-MEL-2; read-out: GI50): 0.658 µM | TGI (SK-MEL-2; read-out: TGI): 2.7 µM | GI50 (SK-MEL-2; read-out: pGI50 (converted)): 0.661 µM | CC50 (SK-MEL-2; [11]): 9.33 µM | TGI (SK-MEL-2; read-out: pTGI (converted)): 2.69 µM | growth at 100 µM (SK-MEL-5): -70% | growth at 0.01 µM (SK-OV-3): 100% | growth at 0.1 µM (MOLT-4): 87% | growth at 100 µM (CAKI-1): -61%

From ChEMBL document CHEMBL4308841, “Synthesis, in vitro antiproliferative activity, and kinase inhibitory effects of pyrazole-containing diarylureas and diarylamides” (Eur J Med Chem, 2018)
